Test system: Eα presentation in MHC-II
Assay: Immunohistochemistry of Eα presentation in MHC-II (Y-ae) around HEVs of LNs
Assay type: in vivo, mouse
Details: three daily i.p. injections starting on the day of MP treatment
Source text: Immunohistochemistry and histology. The following antibodies were used for immunohistochemistry: ERTR7 (clone sc-73355), CD11c (cloneHL3), Laminin alpha4 (clone 775830), laminin alpha 5 (polyclonal), Foxp3 (clone NRRF-30), Vα2 TCR (clone B20.1). For immunohistochemistry, LNs and spleens were frozen with OCT compound (Scigen Tissue-Plus, Gardena, CA). Frozen sections were cut at 6 μm, fixed with cold acetone, blocked with 5% goat or donkey serum (Jackson ImmunoResearch, West Grove, PA) and incubated with the indicated antibodies and DAPI. […] Images were acquired with a Nikon Eclipse 700 (Nikon, Melville, NY, USA) and analyzed with Volocity image analysis software (Perkin Elmer, Waltham, MA). The positive staining area percentage was quantified based on at least three independent experiments with 3 sections per LN and 3-5 fields/section.
Subsequently, we directly investigated the trafficking and presentation of antigen from MPs in […] LNs using Y-ae, a recently-developed antibody tool. […] At 2 days, Eα presentation localized with HEVs was detected in treated LNs (FIG. 12f), and increased by day 6 (FIG. 12g). […]

Q: With `CCCCCCCCc1ccc(CCC(N)(CO)CO)cc1` [FTY720] as the compound, how does the “effect on Eα presentation after Eα MP or Eα/rapamycin MP treatment” value read?
A: Its value is “did not significantly affect Eα presentation”.

— patent publication US20240245762A1, “METHODS AND PLATFORMS FOR PROMOTING ANTIGEN-SPECIFIC TOLERANCE IN THE TREATMENT OF TYPE 1 DIABETES AND GRAFT REJECTION AND COMPOSITIONS RELATING THERETO” (University of Maryland, College Park, priority 2021, published 2024)
